For three compounds, Herbicidal effect results are on record in US12543737B2, “Herbicidal composition and method for controlling weeds” (SUMITOMO CHEMICAL COMPANY, LIMITED, priority 2020, dated 2026).

For assay [1], the system named is waterhemp (Amaranthus tuberculatus=Amaranthus rudis=Amaranthus tamariscinus) having the substitution of an amino acid residue of G210Δ in PPX2. Put plainly: Herbicidal effect, foliar spray pot test in greenhouse (Example 9). The assay is classed as in vivo. Conditions: spray volume 216 L/ha, 28 days after spraying, rating 0 to 100.
The test system is the same in assay [2]. Put plainly: Herbicidal effect, foliar spray pot test in greenhouse (Example 10). Conditions: 216 L/ha, 28 days after spraying, rating 0 to 100. The assay is classed as in vivo.
Where [3] appears, read: glufosinate-ammonium 350 g/ha alone.

SMILES strings stand for the structures.

Turning to `CCOC(=O)COc1ncccc1Oc1cc(-n2c(=O)cc(C(F)(F)F)n(C)c2=O)c(F)cc1Cl` [compound X, epyrifenacil], the Herbicidal effect in assay [1] (compound X 0.5 g/ha alone) was 17; in assay [1] (compound X 1 g/ha alone), 18.
As to `CP(=O)(O)CCC(N)C(=O)O` (centres unmarked) [glufosinate-ammonium], the Herbicidal effect in assay [2] (setting [3]) and in assay [1] (setting [3]) was 37 throughout.
For `C#CCN1C(=O)C(F)(F)Oc2cc(F)c(-n3c(=O)n(C)c(=S)n(C)c3=O)cc21` [trifludimoxazin], in assay [2] (trifludimoxazin 0.5 g/ha alone), the Herbicidal effect is 10.
